Assay results published in patent US20250295657A1, “Methods and Compositions for Treatment of Inflammation and Inflammatory Conditions” (University of Pittsburgh - Of the Commonwealth System of …, priority 2022, published 2025).

System: pseudotyped SARS-CoV-2 (D614G Spike)
Assay type: cell-based

Question: How did the “pseudotyped SARS-CoV-2 infection (D614G Spike)” value turn out when `O=C(OCc1cc(=O)oc2cc(O)c(O)cc12)c1nn(-c2ccccc2)c(=O)c2ccccc12` [compound 958] was run?
Answer: Its value is “prevent pseudotyped SARS-CoV-2 infection”.
